Each structure is given as a SMILES string.

The target of this experiment is Carbonic anhydrase 13 (Mus musculus, UniProt Q9D6N1).
Sequence of Carbonic anhydrase 13 (Q9D6N1 whole entry): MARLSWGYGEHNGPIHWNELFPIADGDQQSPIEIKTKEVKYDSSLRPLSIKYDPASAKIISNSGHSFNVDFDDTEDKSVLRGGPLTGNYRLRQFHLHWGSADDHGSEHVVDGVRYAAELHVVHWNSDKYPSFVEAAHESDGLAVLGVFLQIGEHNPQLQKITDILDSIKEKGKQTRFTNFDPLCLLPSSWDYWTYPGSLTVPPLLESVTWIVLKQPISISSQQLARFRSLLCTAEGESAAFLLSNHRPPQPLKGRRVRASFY
Description: Inhibitory activity against murine carbonic anhydrase XIII (mCA XIII) by using CO2 hydrase assay method
A word on the Ki: it is the dissociation constant of the complex between target and ligand, obtained from inhibition or displacement. `Nc1ccc(S(=O)(=O)NCc2ccc(S(N)(=O)=O)cc2)cc1` registered a Ki of 0.0019 µM.

Take `Nc1ccc(S(N)(=O)=O)cc1I`: affinity was put at a Ki of 0.05 µM.

Turning to `Nc1ccc(S(=O)(=O)Nc2ccc(S(N)(=O)=O)cc2)cc1`, the Ki was found to be 0.0024 µM.

In the case of `Nc1ccccc1S(N)(=O)=O`, the Ki was 0.043 µM.

Compound `Nc1ccc(S(N)(=O)=O)cc1Br` registered a Ki of 0.054 µM.

As to `Nc1ccc(S(N)(=O)=O)cc1F`, the Ki amounted to 0.05 µM.

For the compound `NCCc1ccc(S(N)(=O)=O)cc1`, the inhibition constant Ki amounted to 0.043 µM.

`Nc1ccc(S(N)(=O)=O)cc1Cl` showed a Ki of 0.056 µM.

In turn, `Nc1ccc(S(=O)(=O)NCCc2ccc(S(N)(=O)=O)cc2)cc1` returned an inhibition constant Ki of 0.0013 µM.

The compound `NCc1ccc(S(N)(=O)=O)cc1` [MAFENIDE] came in with a Ki of 0.041 µM.

For the compound `Nc1ccc(S(N)(=O)=O)cc1` [SULFANILAMIDE], affinity was put at a Ki of 0.032 µM.

(Values after ChEMBL document CHEMBL1146805, “Carbonic anhydrase inhibitors. Inhibition of cytosolic isozyme XIII with aromatic and heterocyclic sulfonamides: a novel target for the drug design” (Bioorg Med Chem Lett, 2004).)
